Test results reported in ChEMBL document CHEMBL3286291, “Synthesis and biological evaluation of substituted 4,6-diarylpyrimidines and 3,5-diphenyl-4,5-dihydro-1H-pyrazoles as anti-tubercular agents” (Bioorg Med Chem Lett, 2014).

Assays:
[1] = system: Mycobacterium tuberculosis; assay: Antitubercular activity against Mycobacterium tuberculosis H37Rv by microplate alamar blue assay; assay type: functional
[2] = Cytotoxicity against human THP1 cells by MTT assay; assay type: cell-based; details: THP-1 cells
[3] = Selectivity index, ratio of CC50 for human THP1 cells to MIC for Mycobacterium tuberculosis H37Rv; assay type: toxicity, cell-based; details: THP-1 cells, read-out: Selectivity Index

Row | SMILES | MIC [1] | CC50 [2] [µM] | selectivity ratio [3]
1 | COc1ccc(C2=NN(C(C)=O)C(c3cc(OC)c(OC)c(OC)c3)C2)cc1 (stereo unspecified) | 50 µM | 200 | 4
2 | COc1cc(-c2cc(-c3ccc(F)cc3)nc(N)n2)cc(OC)c1OC | 50 µM |  | 
3 | COc1ccc(-c2cc(-c3cc(OC)c(OC)c(OC)c3)nc(-c3ccncc3)n2)cc1 | > 100 µM |  | 
4 | COc1cc(-c2cc(-c3cc(OC)c(OC)c(OC)c3)nc(-c3ccncc3)n2)cc(OC)c1OC | > 100 µM |  | 
5 | COc1cc(C2CC(c3ccc4c(c3)OCO4)=NN2C(C)=O)cc(OC)c1OC (stereo unspecified) | 100 µM | 200 | 
6 | COc1cc(-c2cc(-c3ccc(Cl)cc3)nc(N)n2)cc(OC)c1OC | 50 µM |  | 
7 | COc1ccc(-c2cc(-c3cc(OC)c(OC)c(OC)c3)nc(-c3ccccn3)n2)cc1 | 25 µM | 50 | 
8 | COc1cc(C2CC(c3ccc(Br)cc3)=NN2C(C)=O)cc(OC)c1OC (stereo unspecified) | 12.5 µM | 100 | 8
9 | COc1cc(-c2cc(-c3ccc4c(c3)OCO4)nc(N)n2)cc(OC)c1OC | > 100 µM | 200 | 
10 | COc1cc(-c2cc(-c3ccc(Br)cc3)nc(N)n2)cc(OC)c1OC | 50 µM | 100 | 
11 | CCSc1nc(Cl)c(C#N)c(-c2ccc(F)cc2F)n1 | 0.78 µg/mL |  | 
12 | COc1ccc(-c2cc(-c3ccc4c(c3)OCO4)nc(N)n2)cc1 | > 100 µM |  | 
13 | COc1ccc(-c2cc(-c3cc(OC)c(OC)c(OC)c3)nc(N)n2)cc1 | 25 µM | 100 | 4
14 | COc1cc(-c2cc(-c3ccc4c(c3)OCO4)nc(-c3ccncc3)n2)cc(OC)c1OC | > 100 µM | 400 | 
15 | COc1cc(-c2cc(-c3cc(OC)c(OC)c(OC)c3)nc(N)n2)cc(OC)c1OC | > 100 µM |  | 
16 | COc1cc(C2=NN(C(C)=O)C(c3cc(OC)c(OC)c(OC)c3)C2)cc(OC)c1OC (stereo unspecified) | > 100 µM | 200 | 
17 | COc1cc(C2CC(c3ccc(Cl)cc3)=NN2C(C)=O)cc(OC)c1OC (stereo unspecified) | 12.5 µM | 100 | 8
18 | COc1ccc(-c2cc(-c3cc(OC)c(OC)c(OC)c3)nc(-c3cccnc3)n2)cc1 | 100 µM | 200 | 
19 | COc1ccc(C2CC(c3ccc4c(c3)OCO4)=NN2C(C)=O)cc1 (stereo unspecified) | 100 µM | 200 | 
20 | CC1=NN(C(=O)c2cc(-c3ccc(Cl)cc3)n[nH]2)C(=O)/C1=N/Nc1cccc(F)c1 | 0.35 µg/mL |  | 
